Earlier results in PubChem BioAssay AID1259409 (Chemical Carcinogenesis Research Information System (CCRIS), 2018).

Test system: rodent chemically induced tumor inhibition, incidence and multiplicity
Assay: CCRIS tumor inhibitor studies
Conditions: for tumour outcome (control, treated, inhibition, significance): Promoter: NONE USED; for outcome: Route [Inhibitor]: DERMAL, Strain/Sex: SENCAR/FEMALE, Target Tissue: Type of Lesion: SKIN: TUMOR, Dose [Carcinogen]: 40 NMOL IN 0.2 ML ACETONE ONCE

CCCCOCCOCCOCc1cc2c(cc1CCC)OCO2
tumour outcome (control, treated, inhibition, significance) (Carcinogen: N-NITROSODIETHYLAMINE, 55-18-5, Dose [Inhibitor]: 400 MG/KG IN 0.2 ML SESAME OIL (TOTAL VOL 0.1 ML) 2 HR PRIOR TO EACH CARCINOGEN DOSE (STUDY DURATION: 21 WK), Route [Inhibitor]: SUBCUTANEOUS, Species: HAMSTER, Strain/Sex: SYRIAN/MALE, Target Tissue: Type of Lesion: LUNG: ADENOMA, ADENOCARCINOMA, Dose [Carcinogen]: 17.8 MG/KG IN 0.9% SALINE (TOTAL VOL 0.1 ML) 2/WK FOR 20 WK): 6/10 (60%), 0/10 (0%), 100%, p<0.01

CC(O)CCC(=O)c1ccoc1 (stereo not drawn)
tumour outcome (control, treated, inhibition, significance) (Carcinogen: 4-(METHYLNITROSAMINO)-1-(3-PYRIDYL)-1-BUTANONE, 64091-91-4, Dose [Inhibitor]: 0, 1 UMOL IN 0.1 ML CORN OIL ONCE 2 HR PRIOR TO CARCINOGEN DOSE (STUDY DURATION: 16 WK), Route [Inhibitor]: GAVAGE, Species: MOUSE, Strain/Sex: STRAIN-A/FEMALE, Target Tissue: Type of Lesion: LUNG: ADENOMA, Dose [Carcinogen]: 10 UMOL IN 0.1 ML SALINE ONCE): 100%, 100%, 0%, not significant

[Mg+2]
tumour outcome (control, treated, inhibition, significance) (Carcinogen: 7,12-DIMETHYLBENZ[A]ANTHRACENE, 57-97-6, Dose [Inhibitor]: 0, 50 UG/ML IN DRINKING WATER FROM 40-90 D OF AGE THEN 0, 30 UG/ML FROM 90-180 D OF AGE AND 0, 20 UG/ML FROM 180-240 D O, Dose [Inhibitor]: 0, 50 UG/ML IN DRINKING WATER FROM 40-90 D OF AGE THEN 0, 30 UG/ML FROM 90-180 D OF AGE AND 0, 20 UG/ML FROM 180-240 D O, Route [Inhibitor]: ORAL, Species: RAT, Strain/Sex: SPRAGUE DAWLEY/FEMALE, Target Tissue: Type of Lesion: MAMMARY GLAND: ADENOCARCINOMA, FIBROADENOMA, Dose [Carcinogen]: 5 MG IN 0.2 ML SESAME OIL 1/2 D FOR 12 D BEGINNING AT 50 D OF AGE): 100%, 46%, 54%, p<0.001

N#C[SeH]
tumour outcome (control, treated, inhibition, significance) (Carcinogen: 7,12-DIMETHYLBENZ[A]ANTHRACENE, 57-97-6, Dose [Inhibitor]: 0, 2 PPM (AS SELENIUM) IN DIET BEGINNING 2 WK PRIOR TO CARCINOGEN DOSE AND CONTINUING FOR DURATION OF STUDY (STUDY DURAT, Route [Inhibitor]: ORAL, Species: RAT, Strain/Sex: SPRAGUE-DAWLEY/FEMALE, Target Tissue: Type of Lesion: MAMMARY GLAND: ADENOCARCINOMA, Dose [Carcinogen]: 10 MG ONCE AT 55 D OF AGE): 88%, 68%, 23%, not significant | tumour outcome (control, treated, inhibition, significance) (Carcinogen: 7,12-DIMETHYLBENZ[A]ANTHRACENE, 57-97-6, Dose [Inhibitor]: 0, 3 PPM (AS SELENIUM) IN DIET BEGINNING 2 WK PRIOR TO CARCINOGEN DOSE AND CONTINUING FOR DURATION OF STUDY (STUDY DURAT, Route [Inhibitor]: ORAL, Species: RAT, Strain/Sex: SPRAGUE-DAWLEY/FEMALE, Target Tissue: Type of Lesion: MAMMARY GLAND: ADENOCARCINOMA, Dose [Carcinogen]: 10 MG ONCE AT 55 D OF AGE): 88%, 44%, 50%, p<0.05

CC1(C)[C@@H](O)CC[C@]2(C)[C@H]3C(=O)C=C4[C@H]5C[C@@](C)(C(=O)O)CC[C@]5(C)CC[C@@]4(C)[C@]3(C)CC[C@@H]12
outcome (Carcinogen: 7,12-DIMETHYLBENZ[A]ANTHRACENE, 57-97-6, Dose [Inhibitor]: 0, 10 UMOL IN 0.2 ML DMSO/ACETONE (1:2) 1/D BEGINNING 7 D PRIOR TO CARCINOGEN DOSE (STUDY DURATION: 16 WK), Species: MOUSE): 100%, 65%, 35%, not calculated at 9 wk; 100%, 100%, 0%, not significant at 16 wk | outcome (Carcinogen: 7,12-DIMETHYLBENZ[A]ANTHRACENE, 57-97-6, Dose [Inhibitor]: 0, 30 UMOL IN DMSO/ACETONE (1:2) 30 MIN PRIOR TO EACH PROMOTER DOSE (STUDY DURATION: 16 WK), Species: MOUSE): 100%, 10%, 90%, not calculated at 9 wk; 100%, 80%, 20%, not calculated at 16 wk

O=C1CC[C@@]2(O)[C@H]3Cc4ccc(O)c5c4[C@@]2(CCN3CC2CC2)[C@H]1O5
tumour outcome (control, treated, inhibition, significance) (Carcinogen: 7,12-DIMETHYLBENZ[A]ANTHRACENE, 57-97-6, Dose [Inhibitor]: 0, 75 MG/KG DIET FOR 20 D BEGINNING 10 D PRIOR TO CARCINOGEN DOSE (STUDY DURATION: 130 D), Route [Inhibitor]: ORAL, Species: RAT, Strain/Sex: SPRAGUE-DAWLEY/FEMALE, Target Tissue: Type of Lesion: MAMMARY GLAND: TUMOR, Dose [Carcinogen]: 15 MG IN 0.1 ML OF SESAME OIL ONCE): 100%, 73%, 27%, not significant | tumour outcome (control, treated, inhibition, significance) (Carcinogen: 7,12-DIMETHYLBENZ[A]ANTHRACENE, 57-97-6, Dose [Inhibitor]: 0, 75 MG/KG DIET FOR 109 D BEGINNING 11 D POST CARCINOGEN DOSE (STUDY DURATION: 130 D), Route [Inhibitor]: ORAL, Species: RAT, Strain/Sex: SPRAGUE-DAWLEY/FEMALE, Target Tissue: Type of Lesion: MAMMARY GLAND: TUMOR, Dose [Carcinogen]: 15 MG IN 0.1 ML OF SESAME OIL ONCE): 92%, 36%, 61%, p=0.0024 | tumour outcome (control, treated, inhibition, significance) (Carcinogen: 7,12-DIMETHYLBENZ[A]ANTHRACENE, 57-97-6, Dose [Inhibitor]: 0, 75 MG/KG DIET FOR 130 D BEGINNING 10 D PRIOR TO CARCINOGEN DOSE (STUDY DURATION: 130 D), Route [Inhibitor]: ORAL, Species: RAT, Strain/Sex: SPRAGUE-DAWLEY/FEMALE, Target Tissue: Type of Lesion: MAMMARY GLAND: TUMOR, Dose [Carcinogen]: 15 MG IN 0.1 ML OF SESAME OIL ONCE): 83%, 46%, 45%, p=0.053 | tumour outcome (control, treated, inhibition, significance) (Carcinogen: DIMETHYLBENZ[A]ANTHRACENE, 57-97-6, Dose [Inhibitor]: 0, 1 MG/KG/D ADMINISTERED TO RESTRAINT-STRESSED RATS BEGINNING 2 DAYS POST CARCINOGEN DOSE AND CONTINUING FOR 18 WK (STU, Route [Inhibitor]: INTRAPERITONEAL, Species: RAT, Strain/Sex: F344/FEMALE, Target Tissue: Type of Lesion: MAMMARY GLAND: TUMOR, Dose [Carcinogen]: 15 MG/ML SESAME OIL ONCE): 32%, 12%, 63%, not calculated | tumour outcome (control, treated, inhibition, significance) (Carcinogen: DIMETHYLBENZ[A]ANTHRACENE, 57-97-6, Dose [Inhibitor]: 0, 1 MG/KG/D BEGINNING 2 DAYS POST CARCINOGEN DOSE AND CONTINUING FOR 18 WK (STUDY DURATION: 18 WK), Route [Inhibitor]: INTRAPERITONEAL, Species: RAT, Strain/Sex: F344/FEMALE, Target Tissue: Type of Lesion: MAMMARY GLAND: TUMOR, Dose [Carcinogen]: 15 MG/ML SESAME OIL ONCE): 27%, 15%, 44%, not calculated

CC(O)CCCc1ccccc1 (stereo not drawn)
tumour outcome (control, treated, inhibition, significance) (Carcinogen: 4-(METHYLNITROSAMINO)-1-(3-PYRIDYL)-1-BUTANONE, 64091-91-4, Dose [Inhibitor]: 0, 25 UMOL IN 0.1 ML CORN OIL ONCE 2 HR PRIOR TO CARCINOGEN DOSE (STUDY DURATION: 16 WK), Route [Inhibitor]: GAVAGE, Species: MOUSE, Strain/Sex: STRAIN-A/FEMALE, Target Tissue: Type of Lesion: LUNG: TUMOR, Dose [Carcinogen]: 10 UMOL IN 0.1 ML SALINE ONCE): 100%, 100%, 0%, not significant
